From patent publication US11535613B2 (GUANGDONG RAYNOVENT BIOTECH CO., LTD., priority 2018, dated 2022)
pEC50: −log10 of the molar value.

Legend:
[1] = Solid stability test of crystal forms (high temperature, high humidity, light radiation, accelerated conditions; appearance, content, impurities, crystal form by XRPD); type: physicochemical; conditions: for change of crystal form (XRPD detection): after the solid stability test conditions; for XPRD: crystal form found
Source text: High Performance Liquid Chromatograph (HPLC) The analytic method is as follows: [table] [table] […] The sample was placed under high temperature, high humidity and acceleration conditions. The bottle was sealed with an aluminum foil, and some small holes were pierced on the aluminum foil to ensure that the sample could fully contact with the ambient air. The sample placed under light radiation was placed upright at room temperature and open to the air. The sample was exposed to a light source, and radiated with sufficient energy prior to taking samples for detection. Samples were taken at various time points for analysis, and the detection results were compared with the initial detection results obtained at Day 0. The investigation items include appearance, content and impurities. […] The sample was placed under high temperature, high humidity and acceleration conditions. The bottle was sealed with an aluminum foil, and some small holes were pierced on the aluminum foil to ensure that the sample could fully contact with the ambient air. The sample placed under light radiation was placed upright at room temperature and open to the air. The sample was exposed to a light source, and radiated with sufficient energy prior to taking samples for detection. Samples were taken at various time points for analysis, and the detection results were compared with the initial detection results obtained at Day 0. The investigation items include appearance, content and impurities. […] Samples were taken at various time points, and the test results were compared with the initial test results obtained at Day 0. […] The investigation items include appearance, impurities, and crystal forms.

[2] = tested on: Influenza virus A/Weiss/43 (H1N1) strain; assay: Influenza virus cytopathy (CPE) experiment; type: cell-based
[3] = tested on: Influenza A virus H1N1 (H1N1 A/WSN/33 virus); assay: Influenza A virus H1N1 mouse infection model (in vivo drug efficacy); conditions: H1N1 A/WSN/33 infected BALB/c mice, 10 mg/kg oral twice a day Day 1 to Day 7, first dose 36 hr after infection
[4] = Acceleration test (40° C./relative humidity 75%, open), Day 5
[5] = Acceleration test (40° C./relative humidity 75%, open), Day 30
[6] = High humidity (room temperature/relative humidity 92.5%, open), Day 5
[7] = High humidity (room temperature/relative humidity 92.5%, open), Day 30
[8] = High temperature (60° C., open), Day 5
[9] = High temperature (60° C., open), Day 30
[10] = Light radiation (total illumination 1.2 × 10^6 Lux · hr), Day 5
[11] = Light radiation (total illumination 1.2 × 10^6 Lux · hr), Day 12
[12] = Acceleration test (40° C./relative humidity 75%, open), Day 12
[13] = High humidity (room temperature/relative humidity 92.5%, open), Day 12
[14] = High temperature (60° C., open), Day 12
[15] = high temperature, high humidity and accelerated experiments
[16] = high temperature, high humidity, light radiation and accelerated experiments
[17] = Acceleration test (40° C./relative humidity 75%, open), Day 10
[18] = High humidity (room temperature/relative humidity 92.5%, open), Day 10
[19] = High temperature (60° C., open), Day 10
[20] = Light radiation (total illumination 1.2 × 10^6 Lux · hr), Day 10

Structure (SMILES): O=C(O)[C@H]1C2CCC(CC2)[C@@H]1Nc1nc(-c2n[nH]c3ncc(F)cc23)nc(C2CC2)c1F [crystal form G]
- Appearance [1, 4]: Off-white solid
- Appearance [1, 5]: Off-white solid
- Total Impurities (%) [1, 5]: 0.35%
- Appearance ([1]; Day 0 (initial)): Off-white solid
- Total Impurities (%) ([1]; Day 0 (initial)): 0.35%
- Appearance [1, 6]: Off-white solid
- Appearance [1, 7]: Off-white solid
- Total Impurities (%) [1, 7]: 0.33%
- Appearance [1, 8]: Off-white solid
- Appearance [1, 9]: Off-white solid
- Total Impurities (%) [1, 9]: 0.42%
- Appearance [1, 10]: Off-white solid
- Appearance [1, 11]: Yellowish solid
- Total Impurities (%) [1, 11]: 0.54%
- change of crystal form (XRPD detection) [1]: does not change
- XPRD [1, 5]: Crystal form G
- XPRD ([1]; Day 0 (initial)): Crystal form G
- XPRD [1, 7]: Crystal form G
- XPRD [1, 9]: Crystal form G
- XPRD [1, 11]: Crystal form G
- change in total impurity content ([1]; high humidity and accelerated experiments): almost no change
- change in total impurity content ([1]; high temperature): relatively small change

Structure (SMILES): O=C(O)[C@H]1C2CCC(CC2)[C@@H]1Nc1nc(-c2n[nH]c3ncc(F)cc23)nc(C2CC2)c1F [crystal form F]
- Appearance [1, 4]: Off-white solid
- Appearance [1, 12]: Off-white solid
- Total Impurities (%) [1, 12]: 1.9%
- Appearance ([1]; Day 0 (initial)): Off-white solid
- Total Impurities (%) ([1]; Day 0 (initial)): 1.7%
- Appearance [1, 6]: Off-white solid
- Appearance [1, 13]: Off-white solid
- Total Impurities (%) [1, 13]: 1.9%
- Appearance [1, 8]: Off-white solid
- Appearance [1, 14]: Off-white solid
- Total Impurities (%) [1, 14]: 1.9%
- Appearance [1, 10]: Off-white solid
- Appearance [1, 11]: Off-white solid
- Total Impurities (%) [1, 11]: 1.8%
- change of crystal form (XRPD detection) [1]: does not change
- XPRD [1, 12]: Crystal form F
- XPRD ([1]; Day 0 (initial)): Crystal form F
- XPRD [1, 13]: Crystal form F
- XPRD [1, 14]: Crystal form F
- XPRD [1, 11]: Crystal form F
- change in total impurity content [1, 15]: almost no change

Structure (SMILES): O=C(O)[C@H]1C2CCC(CC2)[C@@H]1Nc1nc(-c2n[nH]c3ncc(F)cc23)nc(C2CC2)c1F [crystal form H]
- Appearance [1, 4]: Off-white solid
- Appearance [1, 5]: Off-white solid
- Total Impurities (%) [1, 5]: 2.0%
- Appearance ([1]; Day 0 (initial)): Off-white solid
- Total Impurities (%) ([1]; Day 0 (initial)): 1.8%
- Appearance [1, 6]: Off-white solid
- Appearance [1, 7]: Off-white solid
- Total Impurities (%) [1, 7]: 1.9%
- Appearance [1, 8]: Off-white solid
- Appearance [1, 9]: Off-white solid
- Total Impurities (%) [1, 9]: 2.0%
- Appearance [1, 10]: Off-white solid
- Appearance [1, 11]: Yellowish solid
- Total Impurities (%) [1, 11]: 1.9%
- change of crystal form (XRPD detection) [1]: does not change
- XPRD [1, 5]: Crystal form H
- XPRD ([1]; Day 0 (initial)): Crystal form H
- XPRD [1, 7]: Crystal form H
- XPRD [1, 9]: Crystal form H
- XPRD [1, 11]: Crystal form H
- change in total impurity content [1, 16]: almost no change

Structure (SMILES): O=C(O)[C@H]1C2CCC(CC2)[C@@H]1Nc1nc(-c2n[nH]c3ncc(F)cc23)nc(C2CC2)c1F (single isomer, unassigned) [crystal form A]
- Appearance [1, 4]: Off-white solid
- Appearance [1, 17]: Off-white solid
- Content (%) [1, 17]: 98.36%
- Total Impurities (%) [1, 17]: 1.64%
- Appearance ([1]; Day 0 (initial)): Off-white solid
- Content (%) ([1]; Day 0 (initial)): 98.51%
- Total Impurities (%) ([1]; Day 0 (initial)): 1.49%
- Appearance [1, 6]: Off-white solid
- Appearance [1, 18]: Off-white solid
- Content (%) [1, 18]: 98.25%
- Total Impurities (%) [1, 18]: 1.75%
- Appearance [1, 8]: Off-white solid
- Appearance [1, 19]: Off-white solid
- Content (%) [1, 19]: 98.25%
- Total Impurities (%) [1, 19]: 1.75%
- Appearance [1, 10]: Off-white solid
- Appearance [1, 20]: Off-white solid
- Content (%) [1, 20]: 96.89%
- Total Impurities (%) [1, 20]: 3.11%
- change of crystal form (XRPD detection) [1]: does not change
- XPRD [1, 17]: Crystal form A
- XPRD ([1]; Day 0 (initial)): Crystal form A
- XPRD [1, 18]: Crystal form A
- XPRD [1, 19]: Crystal form A
- XPRD [1, 20]: Crystal form A
- change in total impurity content [1, 15]: relatively small change

Structure (SMILES): O=C(O)[C@H]1C2CCC(CC2)[C@@H]1Nc1nc(-c2n[nH]c3ncc(F)cc23)nc(C2CC2)c1F [Compound 1]
- pEC50 ([2]; 120 h, MDCK cells, influenza virus A/Weiss/43 (H1N1), 5 days, CCK8 cell viability): 10.89
- effect in the experiment of inhibiting influenza virus replication at a cell level ([2]; result in words): positive effect
- Rate of Weight Loss (Day 9) ([3]; Day 9): 4.8%
- Survival Rate (%) ([3]; observed to Day 14): 100%

Structure (SMILES): O=C(O)[C@H]1C2CCC(CC2)[C@@H]1Nc1nc(-c2n[nH]c3ncc(F)cc23)nc(C2CC2)c1F (single isomer, unassigned) [crystal form B]
- Appearance ([1]; Day 0 (initial)): Off-white
- Content (%) ([1]; Day 0 (initial)): 98.89%
- Total Impurities (%) ([1]; Day 0 (initial)): 1.11%
- Appearance [1, 6]: Off-white
- Content (%) [1, 6]: 98.92%
- Total Impurities (%) [1, 6]: 1.08%
- Appearance [1, 18]: Off-white
- Content (%) [1, 18]: 98.90%
- Total Impurities (%) [1, 18]: 1.10%
- Appearance [1, 8]: Off-white
- Content (%) [1, 8]: 98.91%
- Total Impurities (%) [1, 8]: 1.09%
- Appearance [1, 19]: Off-white
- Content (%) [1, 19]: 98.89%
- Total Impurities (%) [1, 19]: 1.11%
- Appearance [1, 10]: Off-white
- Appearance [1, 20]: Off-white
- Content (%) [1, 20]: 98.03%
- Total Impurities (%) [1, 20]: 1.97%
- change in total impurity ([1]; accelerated experiments): relatively small change
- change of crystal form (XRPD detection) [1]: does not change
- XPRD ([1]; Day 0 (initial)): Crystal form B
- XPRD [1, 18]: Crystal form B
- XPRD [1, 19]: Crystal form B
- XPRD [1, 20]: Crystal form B
- change in total impurity content ([1]; high temperature, high humidity): almost no change

Structure (SMILES): O=C(O)[C@H]1C2CCC(CC2)[C@@H]1Nc1nc(-c2n[nH]c3ncc(F)cc23)nc(C2CC2)c1F [crystal form D]
- Appearance [1, 4]: Off-white solid
- Appearance [1, 12]: Off-white solid
- Total Impurities (%) [1, 12]: 3.5%
- Appearance ([1]; Day 0 (initial)): Off-white solid
- Total Impurities (%) ([1]; Day 0 (initial)): 3.3%
- Appearance [1, 6]: Off-white solid
- Appearance [1, 13]: Off-white solid
- Total Impurities (%) [1, 13]: 3.4%
- Appearance [1, 8]: Off-white solid
- Appearance [1, 14]: Off-white solid
- Total Impurities (%) [1, 14]: 3.3%
- Appearance [1, 10]: Off-white solid
- Appearance [1, 11]: Off-white solid
- Total Impurities (%) [1, 11]: 3.4%
- change of crystal form (XRPD detection) [1]: does not change
- XPRD [1, 12]: Crystal form D
- XPRD ([1]; Day 0 (initial)): Crystal form D
- XPRD [1, 13]: Crystal form D
- XPRD [1, 14]: Crystal form D
- XPRD [1, 11]: Crystal form D
- change in total impurity content [1, 16]: almost no change
